Values quoted from earlier work as cited in patent publication US20230310429A1, “FORMULATIONS FOR REDUCING HAIR LOSS AND/OR INCREASING HAIR REGROWTH” (TRIPLE HAIR INC., priority 2020, published 2023).
Read-outs that look alike come from different tables or passages of the source.

How the values were obtained:
[1] = test system: prostaglandin endoperoxide synthase-1 (PGHS-1); details: oxygen consumption in PGE2 production; Michelet et al. 1997
regrowth of the hair = details: topical
[2] = not given; remark: listed apart in the source
[3] = not given; remark: listed apart in the source

solubility (in words) ([3]; acetone) | solubility (in words) ([3]; acetonitrile) | solubility (in words) ([3]; ethanol) | solubility (in words) ([3]; ethyl acetate) | solubility (in words) ([3]; isopropanol) | solubility (in words) ([3]; methanol) | solubility (in words) ([3]; octanol) | solubility (in words) ([3]; water) | solubility (in words) ([3]; 0.1N HCl) | solubility (in words) ([3]; 0.1N NaOH) | solubility (in words) ([3]; DMSO) | solubility (in words) ([3]; chloroform) | solubility (in words) ([3]; n-propanol) | solubility (in words) ([3]; polyethylene glycol 400) | solubility (in words) ([3]; propylene glycol) | Compound | activation of purified PGHS-1 [1] | pKa | effective in promoting regrowth of the hair (regrowth of the hair) | other adverse effects ([2]; in vivo) | side effect on periocular hair and eyelashes ([2]; ophthalmic use)
 |  |  |  |  |  |  |  |  |  |  |  |  |  |  | Nc1cc(N2CCCCC2)nc(N)[n+]1[O-] [Minoxidil, (6-(1-pipedidinyl)-2,4-pyrimidinediamine 3-oxide)] | potent activator | 4.61 | less than 40% |  | 
freely soluble | very soluble | freely soluble | freely soluble | freely soluble | freely soluble | freely soluble | practically insoluble |  |  |  |  |  |  |  | CC(C)OC(=O)CCC/C=C\C[C@@H]1[C@@H](CC[C@@H](O)CCc2ccccc2)[C@H](O)C[C@@H]1O [Latanoprost] |  |  |  | erythema, folliculitis, sensation of burning and erysipelas | augmentation of periocular hirsuteness
 |  | freely soluble |  |  | freely soluble |  | not soluble | very slightly soluble | very slightly soluble | freely soluble | freely soluble | freely soluble | sparingly soluble | sparingly soluble | CC(C)(C)NC(=O)[C@H]1CC[C@H]2[C@@H]3CC[C@H]4NC(=O)C=C[C@]4(C)[C@H]3CC[C@]12C [Finasteride, ((5α,17β)-N-(1,1-Dimethylethyl)-3-oxo-4-azaandrost-1-ene-17-carboxamide)] |  |  |  |  | 
